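Cultured in 96-well plates, cells were exposed to test compound for 48 hours across five concentrations. GI50: concentration for 50% inhibition of growth.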 The source made the active and inactive calls. Rule as the data show it: active = GI50 up to about 1.1 µM and inactive = higher.
Assays:
Assay in all cases: DTP human tumour cell line panel, 48 h
SK-OV-3 = system: SK-OV-3
HOP-62 = system: HOP-62
LOX IMVI = system: LOX IMVI
Malme-3M = system: Malme-3M
SR = system: SR
OVCAR-3 = system: OVCAR-3
M14 = system: M14
CCRF-CEM = system: CCRF-CEM
LXFL 529 = system: LXFL 529
HCT-116 = system: HCT-116
A549 = system: A549
RXF 393 = system: RXF 393
HT-29 = system: HT-29
ACHN = system: ACHN
HL-60 = system: HL-60
SK-MEL-2 = system: SK-MEL-2
NCI-H23 = system: NCI-H23
DMS-273 = system: DMS-273

Measured: GI50

Cc1nc2c(n1Cc1ccc(F)cc1)C(=O)c1ccccc1C2=O
inactive: SK-OV-3 > 100 µM | HOP-62 27.7 µM | LOX IMVI 7.18 µM | Malme-3M 8.89 µM | SR 4.29 µM | OVCAR-3 15.1 µM | M14 > 100 µM | CCRF-CEM 10.5 µM | LXFL 529 13.5 µM | HCT-116 6.89 µM | A549 36.5 µM | RXF 393 14.9 µM | HT-29 9.44 µM | ACHN 28.9 µM | HL-60 5.48 µM | SK-MEL-2 34.1 µM | NCI-H23 13.2 µM | DMS-273 6.43 µM

Cc1cccc2c1C/C(=C1\CCc3c(C)cccc31)C2=O
inactive: SK-OV-3 > 100 µM | HOP-62 > 100 µM | LOX IMVI > 100 µM | Malme-3M > 100 µM | SR > 100 µM | OVCAR-3 > 100 µM | M14 > 100 µM | CCRF-CEM > 100 µM | LXFL 529 > 100 µM | HCT-116 > 100 µM | A549 > 100 µM | RXF 393 > 100 µM | HT-29 > 100 µM | ACHN > 100 µM | HL-60 > 100 µM | SK-MEL-2 > 100 µM | NCI-H23 > 100 µM | DMS-273 > 100 µM

O=C(CO)CC(=O)C(=O)Nc1nc([N+](=O)[O-])cs1
inactive: SK-OV-3 > 100 µM | HOP-62 > 100 µM | LOX IMVI > 100 µM | Malme-3M > 100 µM | SR > 100 µM | OVCAR-3 > 100 µM | M14 > 100 µM | CCRF-CEM > 100 µM | LXFL 529 > 100 µM | HCT-116 > 100 µM | A549 > 100 µM | RXF 393 > 100 µM | HT-29 > 100 µM | ACHN > 100 µM | HL-60 > 100 µM | SK-MEL-2 > 100 µM | NCI-H23 > 100 µM | DMS-273 > 100 µM

— ChEMBL document CHEMBL1201862, “PubChem BioAssay data set” (2004)
